Test results from patent publication US11236089B2, “Substituted pyrrolopyridines as ATR inhibitors” (BlueValley Pharmaceutical LLC, priority 2017, dated 2022).
pIC50: −log10 of the molar value.

Tests used:
[1] = target: ATR (Homo sapiens (Human), UniProt Q13535); test: Enzyme ATR in vitro enzyme assay (ELISA, phospho-Ser15 p53 substrate); type: biochemical; details: ATR immunoprecipitated from HeLa nuclear extract; GST-p53N66 substrate; ATP 3 μM; 37° C.
Description: ATR for use in the in vitro enzyme assay was obtained from HeLa nuclear extract (CIL Biotech, Mons, Belgium) by immunoprecipitation with rabbit polyclonal antiserum raised to amino acids 400-480 of ATR (Tibbetts R S et al, 1999, Genes Dev. 13:152-157) contained in the following buffer (25 mM HEPES (pH7.4), 2 mM MgCl2, 250 mM NaCl, 0.5 mM EDTA, 0.1 mM Na3V04, 10% v/v glycerol, and 0.01% v/v Tween 20). ATR-antibody complexes were isolated from nuclear extract by incubating with protein A-Sepharose beads (Sigma, #P3476) for 1 hour and then through centrifugation to recover the beads. In the well of a 96-well plate, […] Sepharose beads were incubated with 1 μg of substrate glutathione S-transferase-p53N66 (NH2-terminal 66 amino acids of p53 fused to glutathione ^-transferase was expressed in E. coli) in ATR assay buffer (50 mM HEPES (pH 7.4), 150 mM NaCl, 6 mM MgCl2, 4 mM MnCl2, 0.1 mM Na3V04, 0.1 mM DTT, and 10% (v/v) glycerol) at 37° C. in the presence or absence of inhibitor. After 10 minutes with gentle shaking, ATP was added to a final concentration of 3 μM and the reaction continued at 37° C. for an additional 1 hour. The reaction was stopped by addition of IOOμí PBS and the reaction was transferred to a white opaque glutathione coated 96-well plate (NUNC #436033) and incubated overnight at 4° C. This plate was then washed with PBS/0.05%>(v/v) Tween 20, blotted dry, and analyzed by a standard ELISA (Enzyme-Linked Immunosorbent Assay) technique with a phospho-serine 15 p53 (16G78) antibody (Cell Signaling Technology, #9286). The detection of phosphorylated glutathione S-transferase-pSSNee substrate was performed in combination with a goat anti-mouse horseradish peroxidase-conjugated secondary antibody (Pierce, #31430). Enhanced chemiluminescence solution (NEN, Boston, Mass.) was used to produce a signal and chemiluminescent detection was carried out via a TopCount (Packard, Meriden, Conn.) plate reader.

[2] = test system: ATM-Deficient Colorectal Cancer LoVo Cell Lines; test: In vitro anti-proliferation assay (ATPlite luminescence); type: cell-based; details: Homo sapiens; LoVo cells; about 72 hours; 5% FBS
Description: Cell antiproliferation was assayed by PerkinElmer ATPlite™ Luminescence Assay System. Briefly, the various test cancer cell lines were plated at a density of about 1×10^4 cells per well in Costar 96-well plates, and were incubated with different concentrations of compounds for about 72 hours in medium supplemented with 5% FBS. One lyophilized substrate solution vial was then reconstituted by adding 5 mL of substrate buffer solution, and was agitated gently until the solution was homogeneous. About 50 μL of mammalian cell lysis solution was added to 100 μL of cell suspension per well of a microplate, and the plate was shaken for about five minutes in an orbital shaker at ˜700 rpm. This procedure was used to lyse the cells and to stabilize the ATP. Next, 50 μL substrate solution was added to the wells and microplate was shaken for five minutes in an orbital shaker at ˜700 rpm. Finally, the luminescence was measured by a PerkinElmer TopCount® Microplate Scintillation Counter. Such assays, carried out with a range of doses of test compounds, allowed the determination of the cellular anti-antiproliferative IC50 of the compounds of the present invention. The following table lists the IC50 values of several cancer cell lines (5% FBS) for certain compounds of the invention.

[3] = Mice PK study; type: in vivo; details: CD-1 mouse; oral dosing po, 10 mg/kg; plasma
Description: The pharmacokinetics of compounds were evaluated in CD-1 mouse via Intravenous and Oral Administration. The IV dose was administered as a slow bolus in the Jugular vein, and oral doses were administered by gavage. The formulation for IV dosing was 5% DMSO in 20% HPBCD in water, and the PO formulation was 2.5% DMSO, 10% EtOH, 20% Cremphor EL, 67.5% D5W. The PK time point for the IV arm was 5, 15, 30 min, 1, 2, 4, 6, 8, 12, 24 hours post dose, and for PO arm was 15, 30 min, 1, 2, 4, 6, 8, 12, 24 hours post dose. Approximately 0.03 mL blood was collected at each time point. Blood of each sample was transferred into plastic micro centrifuge tubes containing EDTA-K2 and collect plasma within 15 min by centrifugation at 4000 g for 5 minutes in a 4° C. centrifuge. Plasma samples were stored in polypropylene tubes. The samples were stored in a freezer at −75±15° C. prior to analysis. Concentrations of compounds in the plasma samples were analyzed using a LC-MS/MS method. WinNonlin (Phoenix™, version 6.1) or other similar software was used for pharmacokinetic calculations. The following pharmacokinetic parameters were calculated, whenever possible from the plasma concentration versus time data: IV administration: C0, CL, Vd, T1/2, AUCinf, AUClast, MRT, Number of Points for Regression; PO administration: Cmax, Tmax, T1/2, AUCinf, AUClast, F %, Number of Points for Regression. […]

ATR, sequence (Q13535 whole entry, the tested form may be a part): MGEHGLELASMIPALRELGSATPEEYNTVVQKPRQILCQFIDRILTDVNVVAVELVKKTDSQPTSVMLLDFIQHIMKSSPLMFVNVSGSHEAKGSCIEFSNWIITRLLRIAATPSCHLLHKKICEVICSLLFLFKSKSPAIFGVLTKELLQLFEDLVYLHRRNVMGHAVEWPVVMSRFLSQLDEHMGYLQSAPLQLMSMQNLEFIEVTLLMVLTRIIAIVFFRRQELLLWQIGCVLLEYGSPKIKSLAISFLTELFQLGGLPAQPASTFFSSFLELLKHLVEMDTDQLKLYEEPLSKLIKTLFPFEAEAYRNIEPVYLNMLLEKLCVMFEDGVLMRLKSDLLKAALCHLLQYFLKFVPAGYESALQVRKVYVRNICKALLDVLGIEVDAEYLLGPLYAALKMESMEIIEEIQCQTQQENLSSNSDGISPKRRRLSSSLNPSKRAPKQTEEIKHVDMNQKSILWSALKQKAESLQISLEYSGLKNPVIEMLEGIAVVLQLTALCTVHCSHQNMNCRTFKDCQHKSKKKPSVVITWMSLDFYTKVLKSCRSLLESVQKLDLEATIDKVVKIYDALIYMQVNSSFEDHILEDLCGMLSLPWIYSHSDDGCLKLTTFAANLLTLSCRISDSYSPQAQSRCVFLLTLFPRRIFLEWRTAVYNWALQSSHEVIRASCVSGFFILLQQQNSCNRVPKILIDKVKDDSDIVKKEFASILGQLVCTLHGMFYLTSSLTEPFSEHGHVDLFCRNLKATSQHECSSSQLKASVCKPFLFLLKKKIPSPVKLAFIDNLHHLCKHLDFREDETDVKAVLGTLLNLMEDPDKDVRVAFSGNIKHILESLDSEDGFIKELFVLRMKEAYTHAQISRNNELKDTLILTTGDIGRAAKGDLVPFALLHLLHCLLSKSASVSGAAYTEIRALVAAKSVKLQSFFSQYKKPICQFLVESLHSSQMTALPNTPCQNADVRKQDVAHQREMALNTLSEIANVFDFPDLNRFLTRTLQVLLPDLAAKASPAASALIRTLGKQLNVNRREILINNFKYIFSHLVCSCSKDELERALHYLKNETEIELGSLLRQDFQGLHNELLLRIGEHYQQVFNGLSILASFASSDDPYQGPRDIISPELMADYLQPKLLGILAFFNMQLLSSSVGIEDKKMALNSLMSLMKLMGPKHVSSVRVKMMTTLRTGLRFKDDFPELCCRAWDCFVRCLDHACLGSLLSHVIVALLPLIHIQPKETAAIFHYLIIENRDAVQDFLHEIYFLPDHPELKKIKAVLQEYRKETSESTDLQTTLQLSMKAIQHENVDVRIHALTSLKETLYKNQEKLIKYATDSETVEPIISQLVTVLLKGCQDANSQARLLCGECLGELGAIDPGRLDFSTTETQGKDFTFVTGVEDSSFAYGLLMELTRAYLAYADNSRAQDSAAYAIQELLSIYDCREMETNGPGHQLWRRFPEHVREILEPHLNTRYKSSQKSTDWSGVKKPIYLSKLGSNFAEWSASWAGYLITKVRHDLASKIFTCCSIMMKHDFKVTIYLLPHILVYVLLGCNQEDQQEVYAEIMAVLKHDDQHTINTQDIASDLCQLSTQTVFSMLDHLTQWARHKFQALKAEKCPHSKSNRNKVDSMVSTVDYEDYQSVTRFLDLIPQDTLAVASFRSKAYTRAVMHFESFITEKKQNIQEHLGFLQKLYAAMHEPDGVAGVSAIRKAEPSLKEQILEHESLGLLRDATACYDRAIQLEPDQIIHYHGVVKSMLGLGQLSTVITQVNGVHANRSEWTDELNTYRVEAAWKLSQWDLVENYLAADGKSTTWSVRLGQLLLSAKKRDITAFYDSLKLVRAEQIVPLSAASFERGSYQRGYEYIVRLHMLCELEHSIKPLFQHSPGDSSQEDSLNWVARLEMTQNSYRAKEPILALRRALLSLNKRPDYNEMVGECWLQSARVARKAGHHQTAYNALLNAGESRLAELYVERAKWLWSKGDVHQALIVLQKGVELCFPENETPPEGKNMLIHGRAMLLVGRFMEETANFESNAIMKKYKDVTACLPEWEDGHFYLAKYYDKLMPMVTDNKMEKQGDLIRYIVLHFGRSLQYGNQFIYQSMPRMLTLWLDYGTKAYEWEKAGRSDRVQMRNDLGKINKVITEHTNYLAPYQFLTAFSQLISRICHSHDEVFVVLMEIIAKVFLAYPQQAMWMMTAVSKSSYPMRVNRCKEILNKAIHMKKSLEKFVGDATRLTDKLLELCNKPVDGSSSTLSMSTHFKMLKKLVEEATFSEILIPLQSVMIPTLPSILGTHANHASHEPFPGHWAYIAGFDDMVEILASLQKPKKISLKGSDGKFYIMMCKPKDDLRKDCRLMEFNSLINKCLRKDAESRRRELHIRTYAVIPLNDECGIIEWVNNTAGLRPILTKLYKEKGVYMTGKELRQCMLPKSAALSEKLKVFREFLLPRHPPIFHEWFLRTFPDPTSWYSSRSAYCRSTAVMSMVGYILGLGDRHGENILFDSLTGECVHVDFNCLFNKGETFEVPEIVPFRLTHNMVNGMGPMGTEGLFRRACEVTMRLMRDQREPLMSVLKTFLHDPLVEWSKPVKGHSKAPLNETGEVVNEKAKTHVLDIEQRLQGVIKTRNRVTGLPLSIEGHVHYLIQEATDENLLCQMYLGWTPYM
ATR, sequence (Q8WXE1 whole entry partner, the tested form may be a part): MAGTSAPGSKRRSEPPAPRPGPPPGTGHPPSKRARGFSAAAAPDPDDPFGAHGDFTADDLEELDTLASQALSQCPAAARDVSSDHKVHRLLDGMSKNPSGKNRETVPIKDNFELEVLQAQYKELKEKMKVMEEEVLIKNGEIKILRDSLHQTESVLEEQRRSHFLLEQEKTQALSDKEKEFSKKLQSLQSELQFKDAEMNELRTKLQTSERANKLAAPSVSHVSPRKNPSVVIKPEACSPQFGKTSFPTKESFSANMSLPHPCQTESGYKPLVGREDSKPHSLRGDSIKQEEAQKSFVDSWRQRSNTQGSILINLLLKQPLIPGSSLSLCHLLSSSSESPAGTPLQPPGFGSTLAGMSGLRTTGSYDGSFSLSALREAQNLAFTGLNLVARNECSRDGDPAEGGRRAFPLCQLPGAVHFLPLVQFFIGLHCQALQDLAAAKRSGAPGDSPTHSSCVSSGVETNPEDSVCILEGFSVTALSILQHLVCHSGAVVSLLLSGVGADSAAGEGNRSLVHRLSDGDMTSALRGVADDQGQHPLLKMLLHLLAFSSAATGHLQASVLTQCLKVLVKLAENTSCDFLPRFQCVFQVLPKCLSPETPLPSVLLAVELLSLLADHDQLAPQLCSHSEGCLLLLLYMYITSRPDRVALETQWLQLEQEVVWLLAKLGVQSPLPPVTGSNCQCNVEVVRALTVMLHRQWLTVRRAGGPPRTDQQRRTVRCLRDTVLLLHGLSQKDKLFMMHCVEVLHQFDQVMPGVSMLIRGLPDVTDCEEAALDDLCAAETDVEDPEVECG

Structure (SMILES): [2H]C([2H])([2H])N=S(C)(=O)C1(c2cc(N3CCOC[C@H]3C)nc(-c3ccnc4[nH]ccc34)n2)CC1 (stereo partly drawn) [CY-209, (2H3)methyl[methyl(1-[6-[(3R)-3-methylmorpholin-4-yl]-2-[1H-pyrrolo[2,3-b]pyridin-4-yl]pyrimidin-4-yl]cyclopropyl)oxo-lambda6-sulfanylidene]amine]
- pIC50 [1]: > 8.52

Structure (SMILES): C[C@@H]1COCCN1c1cc(C(C)(C)C#N)nc(-c2ccnc3[nH]ccc23)n1 [CY-237, 2-methyl-2-[6-[(3R)-3-methylmorpholin-4-yl]-2-[1H-pyrrolo[2,3-b]pyridin-4-yl]pyrimidin-4-yl]propanenitrile]
- pIC50 [2]: 6.32
- pIC50 [1]: > 8.52
- AUC(0-t) [3]: 4390 ng·h/mL

Structure (SMILES): C[C@@H]1COCCN1c1cc(C(C)(C)O)nc(-c2ccnc3[nH]ccc23)n1 [CY-212, 2-[6-[(3R)-3-methylmorpholin-4-yl]-2-[1H-pyrrolo[2,3-b]pyridin-4-yl]pyrimidin-4-yl]propan-2-ol]
- pIC50 [1]: > 8.52

Structure (SMILES): CN=S(C)(=O)C1(c2cc(N3CCOC[C@H]3C)nc(-c3ccnc4[nH]ccc34)n2)CC1 (stereo partly drawn) [CY-200-1, Methyl[methyl(1-[6-[(3R)-3-methylmorpholin-4-yl]-2-[1H-pyrrolo[2,3-b]pyridin-4-yl]pyrimidin-4-yl]cyclopropyl)oxo-lambda-sulfanylidene]amine]
- pIC50 [1]: > 8.52

Structure (SMILES): C[C@@H]1COCCN1c1cc(C2([S@](C)(=N)=O)CC2)nc(-c2cc[nH]c3nccc2-3)n1 [AZD-6738, reference compound]
- pIC50 [2]: 6.10
- AUC(0-t) [3]: 3100 ng·h/mL

Structure (SMILES): C[C@@H]1COCCN1c1cc(NCC2CC(F)(F)C2)nc(-c2ccnc3[nH]ccc23)n1 [CY-249, N-[(3,3-difluorocyclobutyl)methyl]-6-[(3R)-3-methylmorpholin-4-yl]-2-[1H-pyrrolo[2,3-b]pyridin-4-yl]pyrimidin-4-amine]
- pIC50 [2]: 6.29
- pIC50 [1]: > 8.52

Structure (SMILES): C[C@@H]1COCCN1c1cc(C(C)(O)C(F)(F)F)nc(-c2ccnc3[nH]ccc23)n1 (stereo partly drawn) [CY-257, 1,1,1-trifluoro-2-[6-[(3R)-3-methylmorpholin-4-yl]-2-[1H-pyrrolo[2,3-b]pyridin-4-yl]pyrimidin-4-yl]propan-2-ol]
- pIC50 [2]: 6.08
- pIC50 [1]: > 8.52
